Results on four molecules are retold here after PubChem BioAssay AID2060611 (Molecular Pharmacology Branch, DTP, NCI, 2025).

SMILES strings stand for the structures. Values joined by “and” are separate entries in the source; they are usually repeats but may differ in a detail not shown here. Identical values can stand only once.

In this experiment the test system is 628569-122-R-J1-PDC complex spheroid viability. Briefly: Anticancer human tumor 628569-122-R-J1-PDC patient-derived head and neck squamous carcinoma cell line growth inhibition [CLK]. To be noted: for viability, T/C: stronger effect = lower value. Summed up: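 Patient-derived tumor cells grown as complex spheroids with HUVEC endothelial cells and mesenchymal stem cells, treated with drug combinations. Concentrations descend in half-log steps from near clinical Cmax, or from 10 microM if Cmax unknown.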

As usually defined, the IC50 is the concentration needed to halve the response being measured. By viability, T/C is commonly meant the ratio of treated to control.
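Further: spheroids exposed to agents for seven days before readout.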
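Wherever viability, T/C is given: 100% = DMSO vehicle control viability.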

As for `COc1c(OCCCN2CCOCC2)ccc2c3n(c(=NC(=O)c4cnc(N)nc4)nc12)CCN3` + CNC(=O)c1ccc(Nc2nc(OC3CCCC3)c3c(-c4ccc5nc(C)oc5c4)c[nH]c3n2)c(OC)c1, the IC50 was 23.4 nM (curve of first compound, second compound 0.0316 µM); below 3.16 nM (curve of first compound, second compound 0.1 µM); below 3.16 nM (curve of first compound, second compound 0.316 µM); below 3.16 nM (curve of first compound, second compound 1 µM); below 3.16 nM (curve of first compound, second compound 3.16 µM); below 3.16 nM (curve of first compound, second compound 10 µM). Also, the viability, T/C runs as follows: (second compound 0.0316 µM, first compound 0.00316 µM) 83.1%; (second compound 0.0316 µM, first compound 0.01 µM) 66.5%; (second compound 0.0316 µM, first compound 0.0316 µM) 43.5%; (second compound 0.0316 µM, first compound 0.1 µM) 25.6%; (second compound 0.0316 µM, first compound 0.316 µM) 20.6%; (second compound 0.0316 µM, first compound 1 µM) 5.3%. Besides, the viability, T/C (second compound 0.1 µM, first compound 0.00316 µM) was 46.8%; the viability, T/C (second compound 0.1 µM, first compound 0.01 µM) is 46.2%; the viability, T/C (second compound 0.1 µM, first compound 0.0316 µM) is 28.7%; the viability, T/C (second compound 0.1 µM, first compound 0.1 µM) is 22%; the viability, T/C (second compound 0.1 µM, first compound 0.316 µM) was 19.6%; the viability, T/C (second compound 0.1 µM, first compound 1 µM) was 8.28%. The viability, T/C (second compound 0.316 µM, first compound 0.00316 µM) was 48.3%; the viability, T/C (second compound 0.316 µM, first compound 0.01 µM) is 47.7%; the viability, T/C (second compound 0.316 µM, first compound 0.0316 µM) was 29.8%; the viability, T/C (second compound 0.316 µM, first compound 0.1 µM) was 17.1%; the viability, T/C (second compound 0.316 µM, first compound 0.316 µM) is 16.2%; the viability, T/C (second compound 0.316 µM, first compound 1 µM) is 6.59%. Further, the viability, T/C is 37.8% (second compound 1 µM, first compound 0.00316 µM); 34.3% (second compound 1 µM, first compound 0.01 µM); 27.3% (second compound 1 µM, first compound 0.0316 µM); 23.5% (second compound 1 µM, first compound 0.1 µM); 13.9% (second compound 1 µM, first compound 0.316 µM); 3.21% (second compound 1 µM, first compound 1 µM). In addition, the viability, T/C (second compound 3.16 µM, first compound 0.00316 µM) was 41.6%; the viability, T/C (second compound 3.16 µM, first compound 0.01 µM) was 34.7%; the viability, T/C (second compound 3.16 µM, first compound 0.0316 µM) is 27.4%; the viability, T/C (second compound 3.16 µM, first compound 0.1 µM) is 15.4%; the viability, T/C (second compound 3.16 µM, first compound 0.316 µM) is 5.46%; the viability, T/C (second compound 3.16 µM, first compound 1 µM) is 3.02%. Moreover, the viability, T/C reads like this: (second compound 10 µM, first compound 0.00316 µM) 37.5%; (second compound 10 µM, first compound 0.01 µM) 28.5%; (second compound 10 µM, first compound 0.0316 µM) 30.3%; (second compound 10 µM, first compound 0.1 µM) 12.8%; (second compound 10 µM, first compound 0.316 µM) 21.6%; (second compound 10 µM, first compound 1 µM) 7.07%.

As to `COC1C=CCC(C)C(C)S(=O)(=O)NC(=O)c2ccc3c(c2)N(CC2CCC21)CC1(CCCc2cc(Cl)ccc21)CO3` (stereo not drawn), the viability, T/C by setting is: (compound 0.0316 µM) 101% and 91.8%; (compound 0.1 µM) 107% and 82.2%; (compound 0.316 µM) 73% and 64.9%; (compound 1 µM) 57.9% and 45.1%; (compound 3.16 µM) 42.4% and 42.2%; (compound 10 µM) 36.5% and 33.7%. The half-maximal inhibitory concentration (IC50) (curve of compound) was 1490 nM and 826 nM.

Turning to `CC1(C)CCC(CN2CCN(c3ccc(C(=O)NS(=O)(=O)c4ccc(NCC5CCOCC5)c([N+](=O)[O-])c4)c(Oc4cnc5[nH]ccc5c4)c3)CC2)=C(c2ccc(Cl)cc2)C1`, the viability, T/C by setting is: (compound 0.0316 µM) 96.8% and 88.2%; (compound 0.1 µM) 97.5% and 99.5%; (compound 0.316 µM) 86.7% and 95.1%; (compound 1 µM) 101% and 91.4%; (compound 3.16 µM) 101% and 90.6%; (compound 10 µM) 80.5% and 73.1%. The concentration for half-maximal inhibition (IC50) (curve of compound) is above 10000 nM.

As to `CC1COCCN1c1cc(C2(S(C)(=N)=O)CC2)nc(-c2ccnc3[nH]ccc23)n1` (stereo not drawn), the viability, T/C reads like this: (compound 0.0316 µM) 106% and 94.9%; (compound 0.1 µM) 89.1% and 89.6%; (compound 0.316 µM) 102% and 68.9%; (compound 1 µM) 65.9% and 50.8%; (compound 3.16 µM) 42.5% and 40.7%; (compound 10 µM) 33.7% and 33.3%. Also, the IC50 (curve of compound) was 1930 nM and 1080 nM.
